Tested on: BAX
Experiment: In cellulo BRET between TCTP and YFP-fused BAX
Assay type: cell-based
Conditions: MCF-7 cells; donor TCTP, acceptor YFP-fused BAX
Description: BRET assays were performed as indicated in Bah et al.[41]. See Supplementary Information for full details.
-3Δ before cloning into a pnEA -TH plasmid for expression of an N-terminal 6His fusion protein using NdeI and BamHI restriction sites25. The cDNA of human Bcl-xL protein, target gene bank number BC019307, was ordered from PlasmID (DANA-FARBER/HARVARD CANCER CENTER). Bcl-xL(Δ27-81ΔCT) (deletion of residues 27-81 and C-terminal 24 residues) was cloned in a pnEA-TH25 plasmid for expression as a N-terminal 6His fusion protein. Primers used for the deletion of the C-terminal part are 5'- […]
TTTCG-3', including NdeI and BglII restriction sites respectively. […]
BRET assays were performed as indicated in Bah et al.26. […] Light emissions at 475 nm and 530 nm were measured sequentially using the Mithras ﬂuorescence luminescence detector […]
LB 940 (Berthold, Thoiry, France) after adding the luciferase substrate coelenterazine H (Uptima, MontLucon, France) at a ﬁnal concentration of […]. BRET signals (mB.U,milliBRET Unit) were determined by calculating the ra tio of the light emitted by the acceptor (530 nm) over the light emitted by the donor (475 nm). Background BRET signals, determined by transient transfection of pCMV-Bcl-xL or pCMV-Bax instead of the corresponding pEYFP plasmids, were subtracted from YFP-specific BRET signals. […]

In the case of “TCTP: Translationally Controlled Tumor Protein (TCTP/tpt1), recombinant full-length”, the “BRET signals with BAX” value is reported as “no specific BRET signals”.

From paper PMC4728560 (Scientific Reports, 2016)
